The text below walks through data of patent US7491501B2, “Methods for identifying modulators of intracellular aggregate formation” (Auburn University, priority 2003, dated 2009).

Test [1] has as its system p62 aggregates in HEK cells. As to the kind of experiment: p62 aggregate formation by confocal/fluorescence microscopy in transfected HEK cells. In kind it is cell-based, Human. The procedure: Immunofluorescence staining—All steps were done at room temperature unless stated otherwise. The inclusion bodies were placed on poly-L-lysine coated 12 well slides (Cel-line/Erie Scientific Co., Portmouth, N.H.) and let partially dry. Inclusion bodies on the slides were fixed for 10 min in 3% paraformaldehyde (Electron Microscopy Sciences, Fort Washington, Pa.) and permeabilized with 0.1% Triton X-100 in PBS for 15 minutes. The inclusion bodies were incubated in blocking buffer (3% non fat dry milk in PBS) for 1 h, prior to incubation with primary antibodies at 4° C. overnight. After washing with PBS, the secondary antibody (Molecular Probes Inc., Eugene, Oreg.) in blocking buffer was applied for 1 h. After extensive washing in PBS, the samples were mounted using Vectashield (Vector Laboratories Inc., Burlingame, Calif.). The cells were fixed with 3% paraformaldehyde and processed similar to that of inclusion staining.
Cells were incubated with rabbit anti-myc IgG or mouse anti-HA IgG and labeled with Texas Red-conjugated anti-rabbit antibodies (red) or Oregon Green-conjugated anti-mouse antibodies (green), respectively. Merged images with overlapping immunoreactivity are shown in yellow. Note that cells expressing p62 lacking its UBA domain (p62ΔUBA) fail to form aggregates or to colocalize with ubiquitin. All experiments were replicated three independent times with similar results. Small aggregates of p62 colocalized with ubiquitin which was dependant upon the presence of a UBA domain but not the N-terminal portion of p62. Aggregation may impair the proteasome or, alternatively, impaired proteasome activity may seed aggregates. Alternatively, impairment of the proteasome may enhance the formation of p62 aggregates containing polyubiquitin.
In summary, through its UBA domain, p62 Interacts with polyubiquitinated substrates, and the UBA domain is necessary for aggregate formation.
Since TRAF6 localized to the large aggregates along with polyubiquitin (FIG. 2B), these aggregates may represent the failed attempt of the cell to rid itself of TRAF6-K63-polyubiquitinated substrates sequestered through interaction with the UBA domain. […] Altogether, these findings reveal that p62 binds proteins with K63 chains through its UBA domain and that p62 aggregates sequester TRAF6 as well as K63-polyubiquitinated substrates.
To further determine if the coassociation of tau-p62-TRAF6 and UbcH7 could be recapitulated in vitro, a cotransfection approach was undertaken. […] HEK cells were transfected with GFP-p62 followed by treatment or not with Aβ1-42 and Aβ42-1 peptides. […] This is consistent with the observation that microtubule dependent transport is important for the formation of p62 inclusions as assessed by treatment of the cells with nocodazole, a microtubule disrupting agent (9).

In test [2] the target is T1, p62-TRAF6 interaction (Homo sapiens, UniProt Q9Y4K3).
T1 construct: endogenous in cells; host or cells: HEK 293
T1 sequence (Q9Y4K3 1-522): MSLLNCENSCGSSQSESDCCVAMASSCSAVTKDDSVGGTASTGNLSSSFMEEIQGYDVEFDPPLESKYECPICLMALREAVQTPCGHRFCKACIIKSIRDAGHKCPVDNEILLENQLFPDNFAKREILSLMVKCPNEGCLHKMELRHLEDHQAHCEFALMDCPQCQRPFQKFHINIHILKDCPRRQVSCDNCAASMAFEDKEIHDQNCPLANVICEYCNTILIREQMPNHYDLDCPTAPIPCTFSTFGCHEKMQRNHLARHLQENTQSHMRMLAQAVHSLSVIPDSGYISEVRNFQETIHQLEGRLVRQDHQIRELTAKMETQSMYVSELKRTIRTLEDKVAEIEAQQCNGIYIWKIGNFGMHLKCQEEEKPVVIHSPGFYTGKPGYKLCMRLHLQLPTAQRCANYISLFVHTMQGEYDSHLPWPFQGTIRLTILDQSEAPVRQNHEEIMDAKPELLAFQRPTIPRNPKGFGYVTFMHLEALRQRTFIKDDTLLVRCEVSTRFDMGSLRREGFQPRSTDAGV
As to the kind of experiment: p62-TRAF6 interaction in HEK cells after IL-1 stimulation, p62 UBA domain pull-down (FIG. 2C). The test is classed as cell-based. As to conditions: increasing doses of peptide. The procedure:
GST Pull-Down Assay—Glutathione beads coupled with p62 UBA domain were washed three times with binding buffer (20 mM Tris-HCl, pH 7.6, 50 mM NaCl, 0.1% Nonidet P-40, […], 1 mM phenylmethylsulfonyl fluoride) containing 25 μg/ml of BSA. For each mg of lysate, 2.5 μg of GST-UBA domain was added and rotated for 2 h at room temperature. The beads were washed 3 times with binding buffer and boiled in SDS-PAGE sample buffer, followed by separation employing a 7.5% SDS-gel, and western blotting with appropriate antibody.
A peptide (plain type, SEQ ID NO. 6) containing the TRAF6-binding motif present in p62 (underlined type) along with the hydrophobic sequence containing the cell-permeable motif (italicized type) from Kaposi fibroblast growth factor signal sequence was synthesized ([…]-[…]) (SEQ ID NO. 4) or a control peptide with mutant amino acids in the interaction motif (AAVA […]-[…])(SEQ ID NO. 5). […] HEK cells were treated or not with increasing doses of control or TRAF6 inhibitory peptide, followed by stimulation with IL-1. Lysates were prepared and included in a pull-down employing the UBA domain of p62. Should the p62-UBA domain bind K63-polyubiquitinated substrate proteins, a dose-dependent reduction in interaction of the lysates would occur with lysates prepared from cells pretreated with TRAF6 inhibitory peptide. In fact, this is what was found (FIG. 2C).

In test [3] the test system is internalization of NGF by PC12 cells. As to the kind of experiment: Internalization of NGF, 125I-NGF binding assay in PC12 cells (FIG. 15D). The test is classed as cell-based. As to conditions: PC12 cells pretreated with peptide (150 μM); control not shown. The procedure: Additionally, PC12 cells were pretreated or not with TRAF6 peptide (150 μM) followed by measurement of internalized receptor employing 125I-NGF binding assay (FIG. 15D). […] Similarly, the level of internalized NGF was measured in PC12 cells transfected with wild-type ubiquitin, K48R or K63R ubiquitin mutants (FIG. 15E). Transfection of ubiquitin, or K48R mutant was without any effect on internalization of NGF. By comparison, transfection of K63R ubiquitin mutant totally abrogated internalization of the ligand. […] Thus, p62 serves as an adaptor, as well as, a scaffold for TRAF6-directed ubiquitination and K63 chains play a signaling role for internalization and sorting of the receptor.

For the substance “AAVALLPAVLLALLAP-ESASGPSEDPSVNFLK (AAVALLPAVLLALLAPESASGPSEDPSVNFLK; artificial sequence for cell permeable peptide) [TRAF6 peptide]”, the “reduction in the formation of large aggregates” value in test [1] (pretreatment with inhibitory dose of peptide prior to ALLN, GFP-p62 HEK cells) was found to be 60%. The “effect on size of the p62 aggregates” value in test [1] (pretreatment with peptide prior to ALLN (FIG. 2D), control peptide data not shown) is “decrease in the size of the p62 aggregates”. In addition, the p62-TRAF6 interaction entry in test [2] is “blocked p62-TRAF6 interaction in a dose-dependent fashion”. Further, the “internalization of NGF” value in test [3] is recorded as “significantly blocked”.
